Measurements taken from patent publication US11274092B2, “Potassium channel inhibitors” (ACESION PHARMA ApS, priority 2016, dated 2022).

Biological target: T1, human SK3 channel (hKCa2.3) (Homo sapiens, UniProt Q9UGI6)
T1 construct: expressed in transfected cells
Assay: Automated whole cell patch-clamp (QPatch 16 HT), inhibition of SK3 current
Assay type: cell-based
Details: HEK-293 cells stably expressing hKCa2.3; symmetrical K+ solutions, free calcium 400 nM; effects normalized to N-methyl bicuculline
Method: Automated whole cell patch-clamp recordings were performed using a QPatch 16 HT system and single-hole Qplates (Biolin Scientific, Sophion, Denmark) on HEK-293 cells stably expressing the human SK3 channel (hKCa2.3). Cells were cultured and prepared for experiments using normal cell culturing procedures. A total of 4-5 million cells were used per experiment. The Qpatch automatically generates giga sealing, whole-cell formation, compound application and recording of current. hKCa2.3 currents were recorded in symmetrical K^+ solutions, with an intracellular solution consisting of in mM: KCl 108; KOH/EGTA (ethylene glycol-bis(2-aminoethylether)-N,N,N′,N′-tetraacetic acid) 31.25/10; CaCl2) 8.1; MgCl2 1.2; HEPES (2-[4-(2-hydroxyethyl)piperazin-1-yl]ethanesulfonic acid) 10; KOH 15, pH adjusted to pH=7.2 with HCl. The free calcium concentration was calculated to 400 nM. The extracellular solution consisted of in mM: KCl 150; CaCl2) 0.1; MgCl2 3; HEPES 10; Glucose 10, pH=7.4 with KOH. The cells were held at 0 mV and hKCa2.3 currents were elicited by a linear voltage ramp from […] (200 ms in duration) applied every 5th second. The compound application protocol consisted of 12 recording periods lasting from 50-200 s: 1) Baseline recordings in extracellular solution; 2) Application of the positive control N-methyl bicuculline (100 μM), which is characterized by full efficacy, fast on- and off-rate; 3-4) Wash-out; 5-9) Increasing concentrations of test compound to establish an IC50 value; 10-11) Wash-out; 12) positive control with compound NS8593 (N-[(1R)-1,2,3,4-tetrahydro-1-naphthalenyl]-1H-benzimidazol-2-amine) (1 μM). Data were sampled at 10 kHz, 4th order Bessel filter, cut-off frequency 3 kHz. Currents were compensated for run-down. Potency was quantified as the concentration needed to inhibit half of the SK channel activity and reported as an IC50 value. All effects of compounds of the present invention as tested were normalized to the observed inhibitory effect of N-methyl bicuculline.

SMILES	IC50 [µM]
O=C(CC(Nc1nc2ccccc2[nH]1)c1cccc(C(F)(F)F)c1)NCC1COC1 (centres unmarked) [Example 7, 3-[(1H-1,3-benzodiazol-2-yl)amino]-N-(oxetan-3-ylmethyl)-3-[3-(trifluoromethyl)phenyl]propanamide]	10 to 100
O=C(CC(Nc1nc2ccccc2[nH]1)c1cccc(C(F)(F)F)c1)NCC1CCCO1 (centres unmarked) [Example 8, 3-[(1H-1,3-benzodiazol-2-yl)amino]-N-(oxolan-2-ylmethyl)-3-[3-(trifluoromethyl)phenyl]propanamide]	< 10
O=C(CC(Nc1nc2ccccc2[nH]1)c1cccc(C(F)(F)F)c1)N[C@H]1CCOC1 (stereo partly drawn) [Example 9, 3-[(1H-1,3-benzodiazol-2-yl)amino]-N-[(3S)-oxolan-3-yl]-3-[3-(trifluoromethyl)phenyl]propanamide]	< 10
O=C(CC(Nc1nc2ccccc2[nH]1)c1cccc(C(F)(F)F)c1)NC1COC1 (centres unmarked) [Example 10, 3-[(1H-1,3-benzodiazol-2-yl)amino]-N-(oxetan-3-yl)-3-[3-(trifluoromethyl)phenyl]propanamide]	< 10
CN1CCN(C(=O)CC(Nc2nc3ccccc3[nH]2)c2cccc(C(F)(F)F)c2)CC1=O (centres unmarked) [Example 11, 4-{3-[(1H-1,3-benzodiazol-2-yl)amino]-3-[3-(trifluoromethyl)phenyl]propanoyl}-1-methylpiperazin-2-one]	10 to 100
O=C(CC(Nc1nc2ccccc2[nH]1)c1cccc(C(F)(F)F)c1)NCCNS(=O)(=O)Cc1ccccc1 (centres unmarked) [Example 12, 3-[(1H-1,3-benzodiazol-2-yl)amino]-N-[2-(phenylmethanesulfonamido)ethyl]-3-[3-(trifluoromethyl)phenyl]propanamide]	10 to 100
O=C(CC(Nc1nc2ccccc2[nH]1)c1cccc(C(F)(F)F)c1)N1CCC[C@@H](O)C1 (stereo partly drawn) [Example 13, 3-[(1H-1,3-benzodiazol-2-yl)amino]-1-[(3R)-3-hydroxypiperidin-1-yl]-3-[3-(trifluoromethyl)phenyl]propan-1-one]	10 to 100
O=C(CC(Nc1nc2ccccc2[nH]1)c1cccc(C(F)(F)F)c1)N1CC[C@@H](O)C1 (stereo partly drawn) [Example 14, 3-[(1H-1,3-benzodiazol-2-yl)amino]-1-[(3R)-3-hydroxypyrrolidin-1-yl]-3-[3-(trifluoromethyl)phenyl]propan-1-one]	10 to 100
O=C(CC(Nc1nc2ccccc2[nH]1)c1cccc(C(F)(F)F)c1)N1CC[C@H](O)C1 (stereo partly drawn) [Example 15, 3-[(1H-1,3-benzodiazol-2-yl)amino]-1-[(3S)-3-hydroxypyrrolidin-1-yl]-3-[3-(trifluoromethyl)phenyl]propan-1-one]	10 to 100
O=C(CC(Nc1nc2ccccc2[nH]1)c1cccc(C(F)(F)F)c1)NCCCO (centres unmarked) [Example 16, 3-[(1H-1,3-benzodiazol-2-yl)amino]-N-(3-hydroxypropyl)-3-[3-(trifluoromethyl)phenyl]propanamide]	10 to 100
CN(CCCO)C(=O)CC(Nc1nc2ccccc2[nH]1)c1cccc(C(F)(F)F)c1 (centres unmarked) [Example 17, 3-[(1H-1,3-benzodiazol-2-yl)amino]-N-(3-hydroxypropyl)-N-methyl-3-[3-(trifluoromethyl)phenyl]propanamide]	< 10
O=C(CC(Nc1nc2ccccc2[nH]1)c1cccc(C(F)(F)F)c1)NCc1ncco1 (centres unmarked) [Example 18, 3-[(1H-1,3-benzodiazol-2-yl)amino]-N-[(1,3-oxazol-2-yl)methyl]-3-[3-(trifluoromethyl)phenyl]propanamide]	< 10
Cn1ccnc1CNC(=O)CC(Nc1nc2ccccc2[nH]1)c1cccc(C(F)(F)F)c1 (centres unmarked) [Example 19, 3-[(1H-1,3-benzodiazol-2-yl)amino]-N-[(1-methyl-1H-imidazol-2-yl)methyl]-3-[3-(trifluoromethyl)phenyl]propanamide]	10 to 100
CCN(CCO)C(=O)CC(Nc1nc2ccccc2[nH]1)c1ccc(C)c(Cl)c1 (centres unmarked) [Example 20, 3-[(1H-1,3-benzodiazol-2-yl)amino]-3-(3-chloro-4-methylphenyl)-N-ethyl-N-(2-hydroxyethyl)propanamide]	< 10
N#CCNC(=O)CC(Nc1nc2ccccc2[nH]1)c1cccc(C(F)(F)F)c1 (centres unmarked) [Example 21, 3-[(1H-1,3-benzodiazol-2-yl)amino]-N-(cyanomethyl)-3-[3-(trifluoromethyl)phenyl]propanamide]	< 10
CN(C)C(=O)CNC(=O)CC(Nc1nc2ccccc2[nH]1)c1cccc(C(F)(F)F)c1 (centres unmarked) [Example 22, 3-[(1H-1,3-benzodiazol-2-yl)amino]-N-[(dimethylcarbamoyl)methyl]-3-[3-(trifluoromethyl)phenyl]propanamide]	< 10
CCOC(=O)CNC(=O)CC(Nc1nc2ccccc2[nH]1)c1cccc(C(F)(F)F)c1 (centres unmarked) [Example 23, Ethyl 2-{3-[(1H-1,3-benzodiazol-2-yl)amino]-3-[3-(trifluoromethyl)phenyl]propanamido}acetate]	< 10
NCCNC(=O)C(Nc1nc2ccccc2[nH]1)c1cccc(C(F)(F)F)c1 (centres unmarked) [Example 24, N-(2-aminoethyl)-2-[(1H-1,3-benzodiazol-2-yl)amino]-2-[3-(trifluoromethyl)phenyl]acetamide]	10 to 100
CN(C)CCN(C)C(=O)C(Nc1nc2ccccc2[nH]1)c1cccc(C(F)(F)F)c1 (centres unmarked) [Example 25, 2-[(1H-1,3-benzodiazol-2-yl)amino]-N-[2-(dimethylamino)ethyl]-N-methyl-2-[3-(trifluoromethyl)phenyl]acetamide]	10 to 100
O=C(C(Nc1nc2ccccc2[nH]1)c1cccc(C(F)(F)F)c1)N1CCNCC1 (centres unmarked) [Example 26, 2-[(1H-1,3-benzodiazol-2-yl)amino]-1-(piperazin-1-yl)-2-[3-(trifluoromethyl)phenyl]ethan-1-one]	10 to 100
CN1CCN(C(=O)C(Nc2nc3ccccc3[nH]2)c2cccc(C(F)(F)F)c2)CC1 (centres unmarked) [Example 27, 2-[(1H-1,3-benzodiazol-2-yl)amino]-1-(4-methylpiperazin-1-yl)-2-[3-(trifluoromethyl)phenyl]ethan-1-one]	< 10
CN(C)C1CN(C(=O)C(Nc2nc3ccccc3[nH]2)c2cccc(C(F)(F)F)c2)C1 (centres unmarked) [Example 28, 2-[(1H-1,3-benzodiazol-2-yl)amino]-1-[3-(dimethylamino)azetidin-1-yl]-2-[3-(trifluoromethyl)phenyl]ethan-1-one]	10 to 100
O=C(C(Nc1nc2ccccc2[nH]1)c1cccc(C(F)(F)F)c1)N1CCCC1 (centres unmarked) [Example 29, 2-[(1H-1,3-benzodiazol-2-yl)amino]-1-(pyrrolidin-1-yl)-2-[3-(trifluoromethyl)phenyl]ethan-1-one]	< 10
CN(CCO)C(=O)C(Nc1nc2ccccc2[nH]1)c1cccc(C(F)(F)F)c1 (centres unmarked) [Example 30, 2-[(1H-1,3-benzodiazol-2-yl)amino]-N-(2-hydroxyethyl)-N-methyl-2-[3-(trifluoromethyl)phenyl]acetamide]	< 10
O=C(C(Nc1nc2ccccc2[nH]1)c1cccc(C(F)(F)F)c1)N1CCCCC1 (centres unmarked) [Example 31, 2-[(1H-1,3-benzodiazol-2-yl)amino]-1-(piperidin-1-yl)-2-[3-(trifluoromethyl)phenyl]ethan-1-one]	< 10
O=C(C(Nc1nc2ccccc2[nH]1)c1cccc(C(F)(F)F)c1)N1CCOCC1 (centres unmarked) [Example 32, 2-[(1H-1,3-benzodiazol-2-yl)amino]-1-(morpholin-4-yl)-2-[3-(trifluoromethyl)phenyl]ethan-1-one]	< 10
